Read-outs that look alike come from different tables or passages of the source.
What was measured:
[1] = test system: advanced NSCLC; conditions: cited from earlier work; for OS: Hazard ratio / PFS: Hazard ratio: pembrolizumab compared to docetaxel
[2] = test system: advanced melanoma; conditions: cited from earlier work; for Response duration: Median in months: patients with confirmed complete or partial response; for OS: Hazard ratio / PFS: Hazard ratio: pembrolizumab compared to ipilimumab
[3] = test system: GL261 cells; assay: Orthotopic GL261 glioma model, survival of mice; type: in vivo, C57BL/6J mice
Description: In this Example, the effects of the combination of a glutamate modulator, BHV-4157, in combination with an immunotherapeutic agent, anti-PD-1, were compared to either alone in a glioma model substantially as decribed in Zeng, J., et al., Int J Radiat Oncol Biol Phys., 2013 Jun. 1; 86(2):343-349, portions of which are reproduced below.
GL261-Luc cells are grown in Dulbecco's Modified Eagle Medium (DMEM)+10% fetal bovineserum+1% penicillinstreptomycin at 37° C. in a humidified incubator maintained at 5% CO2 and 5% O2 (Gibco).
Female C57BL/6J mice (Harlan), 4 to 6 weeks old or 6 to 8 weeks old, are used for orthotopic glioma experiments as described in Sonabend A M, Velicu S, Ulasov IV, et al. A safety and efficacy study of local delivery of interleukin 12 transgene by PPC polymer in a model of experimental glioma. Anticancer Drugs. 2008;19:133-142. To establish syngeneic gliomas, 130,000 GL261-Luc cells are stereotactically injected in a 1 μl volume into the left striatum over 1 minute into the following coordinates: 1 mm anterior, 1 mm lateral from bregma, and 3 mm deep from the cortical surface. Tumor burden is monitored by luciferase imaging on days 7, 21 and 35 after implantation, and the mice are randomly allocated into treatment arms based on tumor radiance, so that the average tumor radiance in each group is roughly equivalent. The animals are euthanized when they show predetermined signs of neurologic deficits (failure to ambulate, weight loss >20% body mass, lethargy, hunched posture). […] Each arm has 6 to 10 mice in survival experiments. All experiments are repeated at least in triplicate.
Hamster antimurine PD-1 monoclonal antibody producing hybridoma G4 are used to produce antibodies as described in Hirano F, Kaneko K, Tamura H, et al. Blockade of B7-H1 and PD-1 by monoclonal antibodies potentiates cancer therapeutic immunity. Cancer Res. 2005;65:1089-1096.
Female C57BL/6J mice, 4 to 6 weeks old, were implanted intrancranially in the left striatum with 130,000 GL261 cells each. The mice were housed and maintained according to the institutional Animal Care and Use Committee protocol in the Johns Hopkins University Animal Facility. The mice were imaged by bioluminescent IVIS® imaging (Perkin Elmer) at day 7, 21, and 35 to assess tumor burden and randomly assigned to groups, 10 mice per arm, as follows: • 1. Control • 2. anti-PD-1 • 3. Trigriluzole 15 mg/kg • 4. Trigriluzole 30 mg/kg • 5. Trigriluzole 45 mg/kg • 6. anti-PD-1+Trigriluzole 15 mg/kg • 7. anti-PD-1+Trigriluzole 30 mg/kg • 8. anti-PD-1+Trigriluzole 45 mg/kg
Day 0 represents the date of intracranial implantation. Control arm 1 received no treatment. Control arm 2 received αPD-1 alone at a dose of 200 μg/animal via intraperitoneal injection on days 10, 12, 14. Control arms 3, 4 and 5 received BHV-4157 alone at doses of 15, 30 and 45 mg/kg (respectively) via intraperitoneal injection daily beginning on day 10. Control arms 6, 7 and 8 received BHV-4157 at doses of 15, 30 and 45 mg/kg (respectively) via intraperitoneal injection daily beginning on day 10 and αPD-1 at a dose of 200 μg/animal via intraperitoneal injection on days 10, 12, 14.
Animals were euthanized according to humane endpoints including central nervous system disturbances, hunched posture, lethargy, weight loss, and inability to ambulate.

[4] = TPS 1% (entire population), 75 mg/m^2 every 3 weeks
[5] = TPS≥50% (section head prints 'TPS'), 75 mg/m^2 every 3 weeks
[6] = TPS 1% (entire population), 2 mg/kg every 3 weeks
[7] = TPS 1% (entire population), 10 mg/kg every 3 weeks
[8] = TPS≥50% (section head prints 'TPS'), 2 mg/kg every 3 weeks
[9] = TPS≥50% (section head prints 'TPS'), 10 mg/kg every 3 weeks

## CC(=O)O[C@@]12CO[C@@H]1C[C@H](O)[C@@]1(C)C(=O)[C@H](O)C3=C(C)[C@@H](OC(=O)[C@H](O)[C@@H](NC(=O)OC(C)(C)C)c4ccccc4)C[C@@](O)([C@@H](OC(=O)c4ccccc4)[C@H]21)C3(C)C [Docetaxel, docetaxel]
[1]; TPS 1% (entire population), 75 mg/m^2 every 3 weeks, BICR, RECIST 1.1
  PFS: Number of patients with event: 257
[1]; [4]
  OS: % of patients with event: (56%)
  OS: Number of patients with event: 193
  Overall response rate: ORR %: 9%
  PFS: % of patients with event: (75%)
  PFS: Median in months: 4.0 months
  Response duration: % ongoing: 34%
  Response duration: Median in months: 6.2 months
[1]; TPS≥50% (section head prints 'TPS'), 75 mg/m^2 every 3 weeks, all partial responses
  Overall response rate: ORR %: 8%
[1]; [5]
  OS: % of patients with event: (57%)
  OS: Median in months: 8.2 months
  OS: Number of patients with event: 86
  PFS: % of patients with event: (78%)
  PFS: Median in months: 4.1 months
  PFS: Number of patients with event: 118
  Response duration: % ongoing: 33%
  Response duration: Median in months: 8.1 months

## Pembrolizumab: humanized monoclonal IgG4 antibody directed against human cell surface receptor PD-1
[2]; 10 mg/kg every 2 weeks
  Best overall response: ORR %: 34%
  Complete response %: 5%
  OS: % of patients with event: (30%)
  OS: Median in months: Not reached
  OS: Number of patients with event: 85
  PFS: % of patients with event: (56%)
  PFS: Median in months: 5.5 months
  PFS: Number of patients with event: 157
  Partial response %: 29%
  Response duration: % ongoing: 89%
  Response duration: Median in months: 8.3 months
  OS: Hazard ratio: 0.63
  PFS: Hazard ratio: 0.58
[2]; 10 mg/kg every 3 weeks
  Best overall response: ORR %: 33%
  Complete response %: 6%
  OS: % of patients with event: (33%)
  OS: Median in months: Not reached
  OS: Number of patients with event: 92
  PFS: % of patients with event: (57%)
  PFS: Median in months: 4.1 months
  PFS: Number of patients with event: 157
  Partial response %: 27%
  Response duration: % ongoing: 97%
  Response duration: Median in months: Not reached
  OS: Hazard ratio: 0.69
  PFS: Hazard ratio: 0.58
[1]; TPS 1% (entire population), 2 mg/kg every 3 weeks, BICR, RECIST 1.1
  PFS: Number of patients with event: 266
[1]; [6]
  OS: % of patients with event: (50%)
  OS: Number of patients with event: 172
  Overall response rate: ORR %: 18%
  PFS: % of patients with event: (77%)
  PFS: Median in months: 3.9 months
  Response duration: % ongoing: 73%
  Response duration: Median in months: Not reached
  OS: Hazard ratio: 0.71
  PFS: Hazard ratio: 0.88
[1]; TPS 1% (entire population), 10 mg/kg every 3 weeks, BICR, RECIST 1.1
  PFS: Number of patients with event: 255
[1]; [7]
  OS: % of patients with event: (45%)
  OS: Number of patients with event: 156
  Overall response rate: ORR %: 18%
  PFS: % of patients with event: (74%)
  PFS: Median in months: 4.0 months
  Response duration: % ongoing: 72%
  Response duration: Median in months: Not reached
  OS: Hazard ratio: 0.61
  PFS: Hazard ratio: 0.79
[1]; TPS≥50% (section head prints 'TPS'), 2 mg/kg every 3 weeks, all partial responses
  Overall response rate: ORR %: 30%
[1]; [8]
  OS: % of patients with event: (42%)
  OS: Median in months: 14.9 months
  OS: Number of patients with event: 58
  PFS: % of patients with event: (64%)
  PFS: Median in months: 5.2 months
  PFS: Number of patients with event: 89
  Response duration: % ongoing: 76%
  Response duration: Median in months: Not reached
  OS: Hazard ratio: 0.54
  PFS: Hazard ratio: 0.58
[1]; TPS≥50% (section head prints 'TPS'), 10 mg/kg every 3 weeks, all partial responses
  Overall response rate: ORR %: 29%
[1]; [9]
  OS: % of patients with event: (40%)
  OS: Median in months: 17.3 months
  OS: Number of patients with event: 60
  PFS: % of patients with event: (64%)
  PFS: Median in months: 5.2 months
  PFS: Number of patients with event: 97
  Response duration: % ongoing: 75%
  Response duration: Median in months: Not reached
  OS: Hazard ratio: 0.50
  PFS: Hazard ratio: 0.59

## CN(CC(=O)Nc1nc2ccc(OC(F)(F)F)cc2s1)C(=O)CNC(=O)CN [BHV-4157, 2-Amino-N-{[methyl({[6-(trifluoromethoxy)-1,3-benzothiazol-2-yl]carbamoyl}methyl)carbamoyl]methyl}acetamide]
[3]; Arm 3: 15 mg/kg i.p. daily from day 10, day 0
  Percent survival of mice after tumor implantation: 100%
[3]; Arm 3: 15 mg/kg i.p. daily from day 10, day 21
  Percent survival of mice after tumor implantation: 90%
[3]; Arm 3: 15 mg/kg i.p. daily from day 10, day 22
  Percent survival of mice after tumor implantation: 80%
[3]; Arm 3: 15 mg/kg i.p. daily from day 10, day 23
  Percent survival of mice after tumor implantation: 70%
[3]; Arm 3: 15 mg/kg i.p. daily from day 10, day 24
  Percent survival of mice after tumor implantation: 50%
[3]; Arm 3: 15 mg/kg i.p. daily from day 10, day 26
  Percent survival of mice after tumor implantation: 30%
[3]; Arm 3: 15 mg/kg i.p. daily from day 10, day 27
  Percent survival of mice after tumor implantation: 20%
[3]; Arm 3: 15 mg/kg i.p. daily from day 10, day 28
  Percent survival of mice after tumor implantation: 10%
[3]; Arm 3: 15 mg/kg i.p. daily from day 10, day 36
  Percent survival of mice after tumor implantation: 0%
[3]; Arm 4: 30 mg/kg i.p. daily from day 10, day 0
  Percent survival of mice after tumor implantation: 100%
[3]; Arm 4: 30 mg/kg i.p. daily from day 10, day 21
  Percent survival of mice after tumor implantation: 90%
[3]; Arm 4: 30 mg/kg i.p. daily from day 10, day 23
  Percent survival of mice after tumor implantation: 70%
[3]; Arm 4: 30 mg/kg i.p. daily from day 10, day 24
  Percent survival of mice after tumor implantation: 50%
[3]; Arm 4: 30 mg/kg i.p. daily from day 10, day 26
  Percent survival of mice after tumor implantation: 30%
[3]; Arm 4: 30 mg/kg i.p. daily from day 10, day 29
  Percent survival of mice after tumor implantation: 20%
[3]; Arm 4: 30 mg/kg i.p. daily from day 10, day 34
  Percent survival of mice after tumor implantation: 10%
[3]; Arm 4: 30 mg/kg i.p. daily from day 10, day 60
  Percent survival of mice after tumor implantation: 10%
[3]; Arm 5: 45 mg/kg i.p. daily from day 10, day 0
  Percent survival of mice after tumor implantation: 100%
[3]; Arm 5: 45 mg/kg i.p. daily from day 10, day 21
  Percent survival of mice after tumor implantation: 90%
[3]; Arm 5: 45 mg/kg i.p. daily from day 10, day 22
  Percent survival of mice after tumor implantation: 80%
[3]; Arm 5: 45 mg/kg i.p. daily from day 10, day 23
  Percent survival of mice after tumor implantation: 70%
[3]; Arm 5: 45 mg/kg i.p. daily from day 10, day 24
  Percent survival of mice after tumor implantation: 60%
[3]; Arm 5: 45 mg/kg i.p. daily from day 10, day 25
  Percent survival of mice after tumor implantation: 50%
[3]; Arm 5: 45 mg/kg i.p. daily from day 10, day 27
  Percent survival of mice after tumor implantation: 20%
[3]; Arm 5: 45 mg/kg i.p. daily from day 10, day 28
  Percent survival of mice after tumor implantation: 10%
[3]; Arm 5: 45 mg/kg i.p. daily from day 10, day 29
  Percent survival of mice after tumor implantation: 0%
